# According to PubChem BioAssay AID328 (DTP/NCI, 2004):
# Values joined by “and” are separate entries in the source; they are usually repeats but may differ in a detail not shown here. Equal values may be shown once. Inconclusive results and toxic doses are left out.
# Test system: BDF1 mice, P388 leukemia ip, median survival T/C
# Assay: NCI In Vivo Anticancer Drug Screen. Data for tumor model P388 Leukemia (intraperitoneal) in B6D2F1 (BDF1) mice
# Details: endpoint: median survival time, higher = longer survival
# Method in brief: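 Antitumour effect was judged in vivo: survival in drug-treated mice, normalised to that of vehicle-dosed controls, gives the reported T/C.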
# [1] = dose: 100.0 mg/kg/injection, schedule: Q01DX009 (ip), vehicle: Klucel (hydroxypropylcellulose) (HPC)
# [2] = dose: 100.0 mg/kg/injection, schedule: Q04DX003 (ip), vehicle: Klucel (hydroxypropylcellulose) (HPC)
# [3] = dose: 200.0 mg/kg/injection, schedule: Q04DX003 (ip), vehicle: Klucel (hydroxypropylcellulose) (HPC)
# [4] = dose: 400.0 mg/kg/injection, schedule: Q04DX003 (ip), vehicle: Klucel (hydroxypropylcellulose) (HPC)
smiles,measurement,setting,value
CO[C@H](C(=O)[C@@H](O)[C@@H](C)O)[C@@H]1Cc2cc3cc(OC4CC(OC5CC(O)C(O)C(C)O5)C(O)C(C)O4)c(C)c(O)c3c(O)c2C(=O)[C@H]1OC1CC(OC2CC(OC3CC(C)(O)C(O)C(C)O3)C(O)C(C)O2)C(O)C(C)O1 (stereo partly drawn),T/C,"dose: 0.05 mg/kg/injection, schedule: Q01DX009 (ip), vehicle: water",120 % of control and 110 % of control
same,T/C,"dose: 0.06 mg/kg/injection, schedule: Q01DX001 (ip), vehicle: water",100 % of control
same,T/C,"dose: 0.1 mg/kg/injection, schedule: Q01DX015 (ip), vehicle: water",100 % of control
same,T/C,"dose: 0.12 mg/kg/injection, schedule: Q01DX009 (ip), vehicle: clinical formulation",114 % of control
same,T/C,"dose: 0.12 mg/kg/injection, schedule: Q#A X005 (ip), vehicle: saline",118 % of control
same,T/C,"dose: 0.13 mg/kg/injection, schedule: Q01DX001 (ip), vehicle: water",100 % of control
same,T/C,"dose: 0.13 mg/kg/injection, schedule: Q01DX009 (ip), vehicle: saline",122 % of control
same,T/C,"dose: 0.19 mg/kg/injection, schedule: Q01DX010 (ip), vehicle: saline",110 % of control
same,T/C,"dose: 0.2 mg/kg/injection, schedule: Q01DX009 (ip), vehicle: water",150 % of control
same,T/C,"dose: 0.25 mg/kg/injection, schedule: Q01DX001 (im), vehicle: water",100 % of control
same,T/C,"dose: 0.25 mg/kg/injection, schedule: Q01DX001 (ip), vehicle: water",104 % of control
same,T/C,"dose: 0.25 mg/kg/injection, schedule: Q01DX005 (ip), vehicle: saline",100 % of control
same,T/C,"dose: 0.25 mg/kg/injection, schedule: Q01DX009 (ip), vehicle: clinical formulation",121 % of control
same,T/C,"dose: 0.25 mg/kg/injection, schedule: Q01DX010 (oral), vehicle: saline",100 % of control
same,T/C,"dose: 0.25 mg/kg/injection, schedule: Q01DX015 (ip), vehicle: water",115 % of control
same,T/C,"dose: 0.35 mg/kg/injection, schedule: Q01DX009 (ip), vehicle: water",150 % of control
same,T/C,"dose: 0.5 mg/kg/injection, schedule: Q01DX001 (im), vehicle: water",95 % of control
same,T/C,"dose: 0.5 mg/kg/injection, schedule: Q01DX001 (ip), vehicle: saline",100 % of control
same,T/C,"dose: 0.5 mg/kg/injection, schedule: Q01DX001 (ip), vehicle: water",110 % of control
same,T/C,"dose: 0.5 mg/kg/injection, schedule: Q01DX005 (ip), vehicle: saline",100 % of control
same,T/C,"dose: 0.5 mg/kg/injection, schedule: Q01DX009 (ip), vehicle: water",150 % of control
same,T/C,"dose: 0.5 mg/kg/injection, schedule: Q01DX010 (oral), vehicle: saline",100 % of control
same,T/C,"dose: 0.5 mg/kg/injection, schedule: Q02DX005 (ip), vehicle: water",90 % of control
same,T/C,"dose: 0.5 mg/kg/injection, schedule: Q04DX003 (ip), vehicle: saline",100 % of control
same,T/C,"dose: 0.54 mg/kg/injection, schedule: Q01DX005 (ip), vehicle: water",175 % of control
same,T/C,"dose: 0.65 mg/kg/injection, schedule: Q01DX009 (ip), vehicle: water",95 % of control
same,T/C,"dose: 0.65 mg/kg/injection, schedule: Q04DX003 (ip), vehicle: water",115 % of control
same,T/C,"dose: 0.75 mg/kg/injection, schedule: Q01DX010 (ip), vehicle: water",118 % of control
same,T/C,"dose: 1.0 mg/kg/injection, schedule: Q01DX001 (im), vehicle: water",108 % of control
same,T/C,"dose: 1.0 mg/kg/injection, schedule: Q01DX001 (ip), vehicle: saline",100 % of control and 109 % of control
same,T/C,"dose: 1.0 mg/kg/injection, schedule: Q01DX009 (ip), vehicle: clinical formulation",191 % of control
same,T/C,"dose: 1.0 mg/kg/injection, schedule: Q01DX009 (ip), vehicle: saline",94 % of control and 95 % of control
same,T/C,"dose: 1.0 mg/kg/injection, schedule: Q01DX010 (oral), vehicle: saline",100 % of control
same,T/C,"dose: 1.0 mg/kg/injection, schedule: Q04DX003 (ip), vehicle: saline",91 % of control and 118 % of control
same,T/C,"dose: 1.08 mg/kg/injection, schedule: Q04DX003 (ip), vehicle: water",113 % of control
same,T/C,"dose: 1.5 mg/kg/injection, schedule: Q01DX010 (ip), vehicle: saline",180 % of control
same,T/C,"dose: 1.5 mg/kg/injection, schedule: Q01DX010 (oral), vehicle: water",91 % of control
same,T/C,"dose: 1.8 mg/kg/injection, schedule: Q04DX003 (ip), vehicle: water",103 % of control
same,T/C,"dose: 2.0 mg/kg/injection, schedule: Q01DX001 (ip), vehicle: saline",118 % of control
same,T/C,"dose: 2.0 mg/kg/injection, schedule: Q01DX009 (ip), vehicle: saline",31 % of control
same,T/C,"dose: 2.0 mg/kg/injection, schedule: Q01DX010 (oral), vehicle: saline",100 % of control
same,T/C,"dose: 2.0 mg/kg/injection, schedule: Q01DX010 (oral), vehicle: water",91 % of control
same,T/C,"dose: 2.5 mg/kg/injection, schedule: Q01DX010 (oral), vehicle: water",91 % of control
same,T/C,"dose: 50.0 mg/kg/injection, schedule: Q01DX010 (ip), vehicle: water",100 % of control
same,T/C,"dose: 7.5 micrograms/kg/injection, schedule: Q03HX008 (ip), vehicle: saline",100 % of control
same,T/C,"dose: 7.5 micrograms/kg/injection, schedule: Q04DX024 (ip), vehicle: saline",95 % of control
same,T/C,"dose: 63.0 micrograms/kg/injection, schedule: Q01DX010 (ip), vehicle: saline",109 % of control
same,T/C,"dose: 94.0 micrograms/kg/injection, schedule: Q01DX010 (ip), vehicle: saline",100 % of control
same,T/C,"dose: 125.0 micrograms/kg/injection, schedule: Q01DX010 (ip), vehicle: saline",118 % of control
same,T/C,"dose: 188.0 micrograms/kg/injection, schedule: Q01DX010 (ip), vehicle: saline",113 % of control
same,T/C,"dose: 375.0 micrograms/kg/injection, schedule: Q01DX010 (ip), vehicle: saline",113 % of control
Oc1ccc(Nc2ccccc2)cc1,T/C,"dose: 100.0 mg/kg/injection, schedule: Q01DX001 (ip), vehicle: saline",95 % of control
same,T/C,"dose: 200.0 mg/kg/injection, schedule: Q01DX001 (ip), vehicle: saline",100 % of control
same,T/C,"dose: 400.0 mg/kg/injection, schedule: Q01DX001 (ip), vehicle: saline",100 % of control
CP(C)c1ccccc1,T/C,"dose: 25.0 mg/kg/injection, schedule: Q01DX009 (ip), vehicle: Klucel (hydroxypropylcellulose) (HPC)",92 % of control
same,T/C,"dose: 50.0 mg/kg/injection, schedule: Q01DX009 (ip), vehicle: Klucel (hydroxypropylcellulose) (HPC)",96 % of control
same,T/C,"dose: 50.0 mg/kg/injection, schedule: Q04DX003 (ip), vehicle: Klucel (hydroxypropylcellulose) (HPC)",100 % of control
same,T/C,[1],103 % of control
same,T/C,[2],123 % of control
CCCN(CCC)C(=S)[S-].CCCN(CCC)C(=S)[S-].[Zn],T/C,"dose: 37.5 mg/kg/injection, schedule: Q04DX003 (ip), vehicle: saline sonified",100 % of control
same,T/C,"dose: 75.0 mg/kg/injection, schedule: Q04DX003 (ip), vehicle: saline sonified",100 % of control
same,T/C,"dose: 150.0 mg/kg/injection, schedule: Q04DX003 (ip), vehicle: saline sonified",112 % of control
C=CC(COC(C)=O)N1CC1 (stereo not drawn),T/C,"dose: 4.0 mg/kg/injection, schedule: Q01DX009 (ip), vehicle: saline",104 % of control
same,T/C,"dose: 6.0 mg/kg/injection, schedule: Q01DX009 (ip), vehicle: saline",115 % of control
same,T/C,"dose: 8.0 mg/kg/injection, schedule: Q01DX009 (ip), vehicle: saline",112 % of control
same,T/C,"dose: 12.0 mg/kg/injection, schedule: Q04DX003 (ip), vehicle: saline",110 % of control
same,T/C,"dose: 17.0 mg/kg/injection, schedule: Q01DX009 (ip), vehicle: saline",116 % of control
same,T/C,"dose: 25.0 mg/kg/injection, schedule: Q01DX009 (ip), vehicle: saline",150 % of control and 165 % of control
same,T/C,"dose: 25.0 mg/kg/injection, schedule: Q04DX003 (ip), vehicle: saline",120 % of control
same,T/C,"dose: 37.0 mg/kg/injection, schedule: Q01DX009 (ip), vehicle: saline",180 % of control
CCNC(=O)OCc1cnc(C)c(OC(=O)NCC)c1COC(=O)NCC,T/C,"dose: 25.0 mg/kg/injection, schedule: Q01DX005 (ip), vehicle: saline with Tween-80",98 % of control
same,T/C,"dose: 50.0 mg/kg/injection, schedule: Q01DX005 (ip), vehicle: saline with Tween-80",110 % of control
same,T/C,"dose: 100.0 mg/kg/injection, schedule: Q01DX005 (ip), vehicle: saline with Tween-80",100 % of control
same,T/C,"dose: 200.0 mg/kg/injection, schedule: Q01DX005 (ip), vehicle: saline with Tween-80",101 % of control
CCC(C(OC(=O)Nc1ccc(Cl)c(Cl)c1)c1ccc(Cl)cc1)C(O)(C(F)(F)F)C(F)(F)F (stereo not drawn),T/C,[2],100 % of control
same,T/C,[3],95 % of control
same,T/C,[4],91 % of control
CCSc1nc(=S)cc(C)[nH]1,T/C,[1],105 % of control
same,T/C,[2],95 % of control
same,T/C,"dose: 200.0 mg/kg/injection, schedule: Q01DX009 (ip), vehicle: Klucel (hydroxypropylcellulose) (HPC)",100 % of control
same,T/C,[3],95 % of control
same,T/C,"dose: 400.0 mg/kg/injection, schedule: Q01DX009 (ip), vehicle: Klucel (hydroxypropylcellulose) (HPC)",105 % of control
same,T/C,[4],104 % of control
